Results taken from paper PMC11096667 (Cell reports, 2024).

Tests used:
TRPM7 = details: cited from earlier work
TRPM6 = details: cited from earlier work
cryo-EM structure = target: the molecule itself; test: cryo-EM structure

c1ccc2c(c1)CCC[C@H]2Nc1nc2ccccc2[nH]1 [NS8593]
inhibition of TRPM7 (TRPM7): inhibits
inhibition of TRPM6 (TRPM6): inhibits

N#Cc1ccc(COC[C@H]2O[C@@H](n3c(NCc4ccc(Cl)c(Cl)c4)nc4c(N)ncnc43)[C@H](O)[C@@H]2O)cc1 [VER155008]
inhibition of TRPM7 (TRPM7): potent inhibitor
activity against TRPM6 (TRPM6): inactive

B1: C-terminally truncated mouse TRPM7 (residues 1-1280) (domain or fragment, UniProt Q923J1 1-1280, looked up)
chain: MSQKSWIESTLTKRECVYIIPSSKDPHRCLPGCQICQQLVRCFCGRLVKQHACFTASLAMKYSDVKLGEHFNQAIEEWSVEKHTEQSPTDAYGVINFQGGSHSYRAKYVRLSYDTKPEIILQLLLKEWQMELPKLVISVHGGMQKFELHPRIKQLLGKGLIKAAVTTGAWILTGGVNTGVAKHVGDALKEHASRSSRKICTIGIAPWGVIENRNDLVGRDVVAPYQTLLNPLSKLNVLNNLHSHFILVDDGTVGKYGAEVRLRRELEKTINQQRIHARIGQGVPVVALIFEGGPNVILTVLEYLQESPPVPVVVCEGTGRAADLLAYIHKQTEEGGNLPDAAEPDIISTIKKTFNFGQSEAVHLFQTMMECMKKKELITVFHIGSEDHQDIDVAILTALLKGTNASAFDQLILTLAWDRVDIAKNHVFVYGQQWLVGSLEQAMLDALVMDRVSFVKLLIENGVSMHKFLTIPRLEELYNTKQGPTNPMLFHLIRDVKQGNLPPGYKITLIDIGLVIEYLMGGTYRCTYTRKRFRLIYNSLGGNNRRSGRNTSSSTPQLRKSHETFGNRADKKEKMRHNHFIKTAQPYRPKMDASMEEGKKKRTKDEIVDIDDPETKRFPYPLNELLIWACLMKRQVMARFLWQHGEESMAKALVACKIYRSMAYEAKQSDLVDDTSEELKQYSNDFGQLAVELLEQSFRQDETMAMKLLTYELKNWSNSTCLKLAVSSRLRPFVAHTCTQMLLSDMWMGRLNMRKNSWYKVILSILVPPAILMLEYKTKAEMSHIPQSQDAHQMTMEDSENNFHNITEEIPMEVFKEVKILDSSDGKNEMEIHIKSKKLPITRKFYAFYHAPIVKFWFNTLAYLGFLMLYTFVVLVKMEQLPSVQEWIVIAYIFTYAIEKVREVFMSEAGKISQKIKVWFSDYFNVSDTIAIISFFVGFGLRFGAKWNYINAYDNHVFVAGRLIYCLNIIFWYVRLLDFLAVNQQAGPYVMMIGKMVANMFYIVVIMALVLLSFGVPRKAILYPHEEPSWSLAKDIVFHPYWMIFGEVYAYEIDVCANDSTLPTICGPGTWLTPFLQAVYLFVQYIIMVNLLIAFFNNVYLQVKAISNIVWKYQRYHFIMAYHEKPVLPPPLIILSHIVSLFCCVCKRRKKDKTSDGPKLFLTEEDQKKLHDFEEQCVEMYFDEKDDKFNSGSEERIRVTFERVEQMSIQIKEVGDRVNYIKRSLQSLDSQIGHLQDLSALTVDTLKTLTAQKASEASKVHNEITRELSISKHLAQNLID
stoichiometry N (cryo-EM structure): 4
